Five molecules from patent US20260166159A1, “KRAS G12D DEGRADATION AGENT, AND PREPARATION METHOD AND USE THEREFOR” (LEADINGTAC PHARMACEUTICAL (SHAOXING) CO., LTD., priority 2022, published 2026) can be followed below.

Test [1] deals with T1, Human KRAS G12D 6His-tagged (Homo sapiens, UniProt P01116, G12D).
T1 construct: purchased PerkinElmer
Nature of the test: KRAS-G12D/GTP binding assay (HTRF). The following applies: class symbols. An outline of the steps:
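HTRF kit format: 6His-tagged KRAS G12D incubated with compound (final 0.02-5000 nM, 0.5% DMSO), anti-6His Eu cryptate antibody and GTP Red reagent for 1 h at 25° C. 665/620 nm ratio versus control gave inhibition rates; IC50 by nonlinear fit.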

A further test deals with phosphorylated ERK. Nature of the test: KRAS G12D-mediated phosphorylated ERK inhibition assay (AlphaLISA), A427. It is filed as cell-based. The conditions noted are these: Homo sapiens, A-427; A427 cells; class symbols; read-out: pERK (A427) IC50. On the procedure:
The relative amounts of phosphorylated ERK and total ERK in the samples were separately determined according to the test methods provided in the instructions of the AlphaLISA SureFire Ultra p-ERK 1/2 (Thr202/Tyr204) kit (PerkinElmer) and the AlphaLISA SureFire Ultra TotalERK 1/2 kit (PerkinElmer).
The experimental procedures for the assay of the phosphorylated ERK and total ERK were as follows: 10 μL of each sample was added to a 384-well plate (Greiner), and 5 μL of the prepared Acceptor Beads (PerkinElmer) mixed solution (containing 50× Acceptor Beads 615, Activation Buffer, and equal volumes of Reaction Buffer 1 and Reaction Buffer 2) was added to each well; and the plate was incubated at room temperature for 2 h. Then 5 μL of 1× Donor Beads (PerkinElmer) diluted with Dilution Buffer was added to each well, and the plate was incubated at room temperature overnight. After the incubation was completed, AlphaLISA signal values for the phosphorylated ERK and total ERK were separately measured on an EnVision microplate reader (PerkinElmer) in the AlphaScreen standard mode. The following formula was adopted: phosphorylated ERK correction value=phosphorylated ERK AlphaLISA signal value/total ERK AlphaLISA signal value. The relative ratio of the phosphorylated ERK for each sample was calculated. The percentage inhibition rates of the compounds on the phosphorylated ERK at each concentration were calculated by comparing the relative value of the phosphorylated ERK with that of the DMSO control well. Then non-linear curve fittings for logarithmic concentration-inhibition rate were performed by the GraphPad Prism 8 analysis software, and the IC50 values of the compounds on the inhibition of the phosphorylated ERK were obtained (Table 2).

T1 sequence (P01116 1-188 isoform P01116-2 G12D): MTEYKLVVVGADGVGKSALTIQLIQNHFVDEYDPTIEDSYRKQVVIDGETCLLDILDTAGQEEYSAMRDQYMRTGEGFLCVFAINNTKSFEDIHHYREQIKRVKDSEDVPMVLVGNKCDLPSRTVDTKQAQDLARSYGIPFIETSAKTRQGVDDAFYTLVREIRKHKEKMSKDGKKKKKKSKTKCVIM

Take `CCc1c(F)ccc2cc(O)cc(-c3ncc4c(N5CC6CCC(C5)N6)nc(OCC5(CN6CCN(CC7CCC8(CC7)CCN(C(=O)c7ccc(Cl)c(N9CCC(=O)NC9=O)c7)CC8)CC6)CC5)nc4c3F)c12` [Example 30, 1-(5-(9-((4-((1-(((4-(3,8-diazabicyclo[3.2.1]octan-3-yl)-7-(8-ethyl-7-fluoro-3-hydroxynaphthalen-1-yl)-8-fluoropyrido[4,3-d]pyrimidin-2-yl)oxy)methyl)cyclopropyl)methyl)piperazin-1-yl)methyl)-3-azaspiro[5.5]undecane-3-carbonyl)-2-chlorophenyl)dihydropyrimidine-2,4(1H,3H)-dione]: the 50% inhibitory concentration (IC50) is 50 to 100 nM in test [1] and no more than 50 nM in the test on phosphorylated ERK.

For the molecule `C#Cc1c(F)ccc2cc(O)cc(-c3ncc4c(N5CC6CCC(C5)N6)nc(OCC5(CN6CCN(CCCCC7CCC8(CC7)CCN(C(=O)c7ccc(Cl)c(N9CCC(=O)NC9=O)c7)CC8)CC6)CC5)nc4c3F)c12` [Example 31, 1-(5-(9-(4-(4-((1-(((4-(3,8-diazabicyclo[3.2.1]octan-3-yl)-7-(8-ethynyl-7-fluoro-3-hydroxynaphthalen-1-yl)-8-fluoropyrido[4,3-d]pyrimidin-2-yl)oxy)methyl)cyclopropyl)methyl)piperazin-1-yl)butyl)-3-azaspiro[5.5]undecane-3-carbonyl)-2-chlorophenyl)dihydropyrimidine-2,4(1H,3H)-dione], the IC50 (in test [1]; in the test on phosphorylated ERK) was no more than 50 nM each time.

Consider `C#Cc1c(F)ccc2cc(O)cc(-c3ncc4c(N5CC6CCC(C5)N6)nc(OC[C@@H]5CCCN5CCC5CCC6(CC5)CCN(C(=O)c5ccc(Cl)c(N7CCC(=O)NC7=O)c5)CC6)nc4c3F)c12` [Example 32, 1-(5-(9-(2-((S)-2-(((4-(3,8-diazabicyclo[3.2.1]octan-3-yl)-7-(8-ethynyl-7-fluoro-3-hydroxynaphthalen-1-yl)-8-fluoropyrido[4,3-d]pyrimidin-2-yl)oxy)methyl)pyrrolidin-1-yl)ethyl)-3-azaspiro[5.5]undecane-3-carbonyl)-2-chlorophenyl)dihydropyrimidine-2,4(1H,3H)-dione], for which the IC50 in test [1] was in the range of 500 to 1000 nM; with phosphorylated ERK it was 1000 to 10000 nM.

As to `C#Cc1c(F)ccc2cc(O)cc(-c3ncc4c(N5CC6CCC(C5)N6)nc(OCC56CC(CN7CCN(CC8CCC9(CC8)CCN(C(=O)c8ccc(Cl)c(N%10CCC(=O)NC%10=O)c8)CC9)CC7)(C5)C6)nc4c3F)c12` [Example 33, 1-(5-(9-((4-((3-(((4-(3,8-diazabicyclo[3.2.1]octan-3-yl)-7-(8-ethynyl-7-fluoro-3-hydroxynaphthalen-1-yl)-8-fluoropyrido[4,3-d]pyrimidin-2-yl)oxy)methyl)bicyclo[1.1.1]pentan-1-yl)methyl)piperazin-1-yl)methyl)-3-azaspiro[5.5]undecane-3-carbonyl)-2-chlorophenyl)dihydropyrimidine-2,4(1H,3H)-dione], the IC50 is 100 to 500 nM in test [1] and no more than 50 nM in the test with phosphorylated ERK.

`C#Cc1c(F)ccc2cc(O)cc(-c3ncc4c(N5CC6CCC(C5)N6)nc(OCC5(CN6CCN(CC7CCC8(CC7)CCN(C(=O)c7ccc(C)c(N9CCC(=O)NC9=O)c7)CC8)CC6)CC5)nc4c3F)c12` [Example 36, 1-(5-(9-((4-((1-(((4-(3,8-diazabicyclo[3.2.1]octan-3-yl)-7-(8-ethynyl-7-fluoro-3-hydroxynaphthalen-1-yl)-8-fluoropyrido[4,3-d]pyrimidin-2-yl)oxy)methyl)cyclopropyl)methyl)piperazin-1-yl)methyl)-3-azaspiro[5.5]undecane-3-carbonyl)-2-methylphenyl)dihydropyrimidine-2,4(1H,3H)-dione]: the IC50 (in test [1]; with phosphorylated ERK) was no more than 50 nM in each case.
